# Experimental data published in PMC4551797 (PLoS ONE, 2015).
# Read-outs that look alike come from different tables or passages of the source.
# Experiments:
# C57BL/6 mice [1] = assay: Acute in vivo incretin secretion assay (plasma GLP-1 and PYY AUC); conditions: fasted mice, 3-hour time course
# Description: Plasma was separated by centrifugation, aliquoted, and analyzed for GLP-1 (X-36) amide (Mesoscale Discovery) and total PYY (Millipore). Resulting raw data was used to generate area under the curve analyses (AUCs).
# GPR120 = target: T1, GPR120 (Homo sapiens, UniProt Q5NUL3); assay: Selectivity: enteroendocrine GPCR GPR120
# T1 sequence (Q5NUL3 1-361): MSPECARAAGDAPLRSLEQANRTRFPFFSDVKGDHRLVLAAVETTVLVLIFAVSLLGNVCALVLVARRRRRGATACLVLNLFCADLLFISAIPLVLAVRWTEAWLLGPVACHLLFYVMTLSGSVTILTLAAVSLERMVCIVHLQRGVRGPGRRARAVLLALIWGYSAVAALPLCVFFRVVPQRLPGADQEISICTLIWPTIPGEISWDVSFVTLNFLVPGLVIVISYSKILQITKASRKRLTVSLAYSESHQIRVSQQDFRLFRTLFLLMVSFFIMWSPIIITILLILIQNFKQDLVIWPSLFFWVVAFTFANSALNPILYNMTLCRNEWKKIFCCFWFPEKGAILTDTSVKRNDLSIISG
# HEK-293 cells = assay: cAMP production in untransfected HEK-293 cells (specificity control); format: cell-based; conditions: Homo sapiens, HEK293, read-out: cAMP production: no elevation up to
# Description: (§1) HEK-293 cells were obtained from ATCC and a clonal HEK-293 line overexpressing mouse TGR5 was prepared. Both were maintained in Dulbecco’s modified Eagle’s medium (DMEM) containing 10% fetal bovine serum (FBS) and penicillin /streptomycin. Mouse STC-1 cells were obtained from ATCC under agreement with the Cold Spring Harbor Laboratories and maintained in DMEM containing 10% FBS and penicillin /streptomycin. NCI-H716 cells were obtained from ATCC and were maintained in RPMI-1640 with 10% FBS. NCI-H716 cells were cultured in 96 well plate coated with Matrigel (BD). After 72 hours, cAMP production stimulated with TGR5 agonists was measured using HTRF cAMP assay kit (CISBIO). The level of cAMP in suspensions of STC-1 cells stimulated with increasing concentrations of TGR5 agonists was also determined. […] The production of GLP-1 was determined using a GLP-1 Assay (7–36) amide kit (Mesoscale Discovery) following the manufacturer’s instructions. […]
# (§2) Compound 18 is a novel small molecule agonist of TGR5 developed by Eli Lilly and Company (MW = 508.62, Fig 2A). […] In order to determine potency of compound 18 for the mouse and human TGR5 receptor in cells with endogenous levels of receptor, we measured compound 18-stimulated cAMP production and GLP-1 secretion in both mouse (STC-1) and human (NCI-H716) enteroendocrine cell lines, that we have shown to express TGR5 natively (Fig 1). […]
# C57BL/6 mice [2] = assay: Oral glucose tolerance test, glucose only; conditions: oral 1-100 mg/kg tested, glucose 3 g/kg 15 min after compound
# Description: For measurement of glucose only, overnight-fasted C57BL/6 mice in a normal light cycle were orally dosed with vehicle or compound, followed by an oral bolus of 3 g/kg glucose at 15 minutes post compound. At 0, 20, 40, 60, and 120 minutes post glucose dose, blood glucose was assessed via glucometers. Resulting raw data was used to generate AUCs. […] At 0, 15, 30, 60, and 120 minutes post glucose dose, blood glucose was assessed via glucometers. Resulting raw data was used to generate AUCs.
# mouse TGR5 = target: T2, mouse TGR5 (Mus musculus, UniProt Q80SS6); assay: cAMP production in HEK-293 cells stably transfected with the mouse TGR5 gene (HTRF cAMP assay); format: cell-based; design: expressed in transfected cells
# T2 sequence (Q80SS6 1-329): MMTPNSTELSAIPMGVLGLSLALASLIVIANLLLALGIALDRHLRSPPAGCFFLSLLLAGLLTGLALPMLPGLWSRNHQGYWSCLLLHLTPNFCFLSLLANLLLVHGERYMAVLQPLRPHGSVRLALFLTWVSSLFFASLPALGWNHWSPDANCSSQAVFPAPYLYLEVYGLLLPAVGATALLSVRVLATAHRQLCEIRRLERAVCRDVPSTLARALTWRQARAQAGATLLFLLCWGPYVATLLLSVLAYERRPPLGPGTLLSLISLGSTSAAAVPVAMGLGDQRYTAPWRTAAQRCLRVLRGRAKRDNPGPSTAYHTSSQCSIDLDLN
# Description: as §1, §2
# GPR40 = GPR40 (Homo sapiens, UniProt O14842); assay: Selectivity: enteroendocrine GPCR GPR40
# wild-type mice = assay: Three-day study on GLP-1, PYY and bile weight in wild-type littermates; conditions: 100 mg/kg oral BID 3 days, 30 min after last dose
# Description: C57BL/6 mice, Tgr5 KO mice, or their wild-type littermate controls were orally dosed with vehicle or compounds twice per day for 3 days, with overnight fasting performed on the evening of day 2. On the morning of day 3, animals were dosed orally with compounds and then euthanized by CO2 asphyxiation at 30 minutes after the fifth dose. Plasma was collected for analysis of GLP-1 (X-36) amide as mentioned above, followed immediately by incision into the abdominal cavity to remove and weigh bile from the gallbladder.
# GPR40, sequence (O14842 whole entry, species assumed): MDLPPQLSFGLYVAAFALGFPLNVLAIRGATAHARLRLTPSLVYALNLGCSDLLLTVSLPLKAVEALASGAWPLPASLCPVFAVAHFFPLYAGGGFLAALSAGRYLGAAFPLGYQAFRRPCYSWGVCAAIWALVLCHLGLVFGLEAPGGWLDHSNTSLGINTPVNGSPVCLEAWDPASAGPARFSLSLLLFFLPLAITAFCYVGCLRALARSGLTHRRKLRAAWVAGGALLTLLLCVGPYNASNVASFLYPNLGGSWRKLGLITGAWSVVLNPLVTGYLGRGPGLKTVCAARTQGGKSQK
compound,measurement,setting,value
CC(=O)N1CCC(C(C)N(C(=O)COc2cccc3sc4nc(C)cn4c23)c2ccc(F)cc2)CC1 (centres unmarked) [compound 18],GLP-1 AUC increase over vehicle,C57BL/6 mice [1]; 3 mg/kg oral,1.2 fold over vehicle
same,PYY AUC increase over vehicle,C57BL/6 mice [1]; 3 mg/kg oral,1.1 fold over vehicle
same,GLP-1 AUC increase over vehicle,C57BL/6 mice [1]; 10 mg/kg oral,2.0 fold over vehicle
same,PYY AUC increase over vehicle,C57BL/6 mice [1]; 10 mg/kg oral,1.5 fold over vehicle
same,GLP-1 AUC increase over vehicle,C57BL/6 mice [1]; 30 mg/kg oral,5.7 fold over vehicle
same,PYY AUC increase over vehicle,C57BL/6 mice [1]; 30 mg/kg oral,3.1 fold over vehicle
same,GLP-1 AUC increase over vehicle,C57BL/6 mice [1]; 100 mg/kg oral,12.1 fold over vehicle
same,PYY AUC increase over vehicle,C57BL/6 mice [1]; 100 mg/kg oral,4.9 fold over vehicle
same,EC50,GPR120,> 125000 nM
same,EC50,HEK-293 cells,> 30000 nM
same,doses that reduce glucose excursions in OGTT,C57BL/6 mice [2],≥ 30 mg/kg
same,EC50,"mouse TGR5; HEK-293 cells over-expressing mouse TGR5, read-out: EC50, cAMP production",24.7 nM
same,EC50,"mouse TGR5; cAMP, unit inferred, x-axis in nM, read-out: EC50 HEK-293-mTGR5 (Fig 2B inset)",24.7 nM
same,EC50,GPR40,> 125000 nM
same,GLP-1,wild-type mice,significant increase
same,PYY,wild-type mice,significant increase
same,bile weight,wild-type mice,significant increase
